Assay results published in ChEMBL document CHEMBL3880386, “Combination comprising the MEK inhibitor N-{3-[3-cyclopropyl-5-(2-fluoro-4-iodo- phenylamino)-6,8-dimethyl-2,4,7-trioxo-3,4,6,7-tetrahydro-2H-pyrido[4,3-d]pyrimidin-1-yl]phenyl}acetamide and the Akt inhibitor N-{(1S)-2-amino-1-[(3-fluorophenyl)methyl]ethyl}-5-chloro-4-(4-chloro-1- …” (2014).

Legend:
[1] = (§1) Growth inhibition of human EFM19 cells at 1:10 molar ratio of compound in presence of N-{3-[3-cyclopropyl-5-(2-fluoro-4-iodo-phenylamino)-6,8-dimethyl- 2,4,7-trioxo-3,4,6,7-tetrahydro-2H-pyrido[4,3-d]pyrimidin-1-yl]phenyl}acetamide incubated for 72 hrs by Cell-titer-Glo reagent based assay; type: functional; details: EFM-19, 72 h
[2] = Growth inhibition of human HT-29 cells at 1:10 molar ratio of compound in presence of N-{3-[3-cyclopropyl-5-(2-fluoro-4-iodo-phenylamino)-6,8-dimethyl- 2,4,7-trioxo-3,4,6,7-tetrahydro-2H-pyrido[4,3-d]pyrimidin-1-yl]phenyl}acetamide incubated for 72 hrs by Cell-titer-Glo reagent based assay; type: functional; details: HT-29, 72 h
[3] = Growth inhibition of human SW480 cells at 1:10 molar ratio of compound in presence of N-{3-[3-cyclopropyl-5-(2-fluoro-4-iodo-phenylamino)-6,8-dimethyl- 2,4,7-trioxo-3,4,6,7-tetrahydro-2H-pyrido[4,3-d]pyrimidin-1-yl]phenyl}acetamide incubated for 72 hrs by Cell-titer-Glo reagent based assay; type: functional; details: SW480, 72 h
[4] = Growth inhibition of human COR-L23 cells at 1:10 molar ratio of compound in presence of N-{3-[3-cyclopropyl-5-(2-fluoro-4-iodo-phenylamino)-6,8-dimethyl- 2,4,7-trioxo-3,4,6,7-tetrahydro-2H-pyrido[4,3-d]pyrimidin-1-yl]phenyl}acetamide incubated for 72 hrs by Cell-titer-Glo reagent based assay; type: functional; details: COR-L23, 72 h
[5] = Growth inhibition of human NCI-H1792 cells at 1:10 molar ratio of compound in presence of N-{3-[3-cyclopropyl-5-(2-fluoro-4-iodo-phenylamino)-6,8-dimethyl- 2,4,7-trioxo-3,4,6,7-tetrahydro-2H-pyrido[4,3-d]pyrimidin-1-yl]phenyl}acetamide incubated for 72 hrs by Cell-titer-Glo reagent based assay; type: functional; details: NCI-H1792, 72 h
[6] = Growth inhibition of human NCI-H1155 cells at 1:10 molar ratio of compound in presence of N-{3-[3-cyclopropyl-5-(2-fluoro-4-iodo-phenylamino)-6,8-dimethyl- 2,4,7-trioxo-3,4,6,7-tetrahydro-2H-pyrido[4,3-d]pyrimidin-1-yl]phenyl}acetamide incubated for 72 hrs by Cell-titer-Glo reagent based assay; type: functional; details: NCI-H1155, 72 h
[7] = Growth inhibition of human NCI-H727 cells at 1:10 molar ratio of compound in presence of N-{3-[3-cyclopropyl-5-(2-fluoro-4-iodo-phenylamino)-6,8-dimethyl- 2,4,7-trioxo-3,4,6,7-tetrahydro-2H-pyrido[4,3-d]pyrimidin-1-yl]phenyl}acetamide incubated for 72 hrs by Cell-titer-Glo reagent based assay; type: functional; details: NCI-H727, 72 h
[8] = as §1, with “NCI-H23” for “EFM19”, “cells assessed combination index” for “cells”; type: functional
[9] = as §1, with “Calu6” for “EFM19”, “cells assessed combination index” for “cells”; type: functional, Calu-6
[10] = Growth inhibition of human HT-29 cells at 1:10 molar ratio of compound in presence of N-{(1S)-2-amino-1-[(3-fluorophenyl)methyl]ethyl}-5-chloro-4-(4-chloro-1-methyl-1H-pyrazol-5-yl)-2-thiophenecar- boxamide incubated for 72 hrs by Cell-titer-Glo reagent based assay; type: functional; details: HT-29, 72 h
[11] = Growth inhibition of human SW1573 cells at 1:10 molar ratio of compound in presence of N-{(1S)-2-amino-1-[(3-fluorophenyl)methyl]ethyl}-5-chloro-4-(4-chloro-1-methyl-1H-pyrazol-5-yl)-2-thiophenecar- boxamide incubated for 72 hrs by Cell-titer-Glo reagent based assay; type: functional; details: SW1573, 72 h
[12] = Growth inhibition of human HCT8 cells assessed combination index at 1:10 molar ratio of compound in presence of N-{(1S)-2-amino-1-[(3-fluorophenyl)methyl]ethyl}-5-chloro-4-(4-chloro-1-methyl-1H-pyrazol-5-yl)-2-thiophenecar- boxamide incubated for 72 hrs by Cell-titer-Glo reagent based assay; type: functional, HCT-8
[13] = Growth inhibition of human NCI-H727 cells assessed combination index at 1:10 molar ratio of compound in presence of N-{(1S)-2-amino-1-[(3-fluorophenyl)methyl]ethyl}-5-chloro-4-(4-chloro-1-methyl-1H-pyrazol-5-yl)-2-thiophenecar- boxamide incubated for 72 hrs by Cell-titer-Glo reagent based assay; type: functional

Compound	IC50 [1] [nM]	IC50 [2] [nM]	IC50 [3] [nM]	IC50 [4] [nM]	IC50 [5] [nM]	IC50 [6] [nM]	IC50 [7] [nM]	CI [8]	CI [9]	IC50 [10] [nM]	IC50 [11] [nM]	CI [12]	CI [13]
Cn1ncc(Cl)c1-c1cc(C(=O)N[C@H](CN)Cc2cccc(F)c2)sc1Cl [AFURESERTIB]	300	15	259	368	374	101	19	0.76	0.79	–	–	–	–
CC(=O)Nc1cccc(-n2c(=O)n(C3CC3)c(=O)c3c(Nc4ccc(I)cc4F)n(C)c(=O)c(C)c32)c1 [TRAMETINIB]	–	–	–	–	–	–	–	–	–	1	38	0.39	1.09
